The values that follow come from patent US8361743B2, “Biological production of zeaxanthin and carotenoid biosynthesis control” (Aquapharm Bio-Discovery Ltd., priority 2005, dated 2013).

Structures are written as SMILES.

This test has as its system strain AQP096. In words: Induction of the carotenoid biosynthetic pathway using menadione, HPLC carotenoid analysis. Type of test: cell-based, Algibacter sp. AQP096. The procedure: On the HPLC using a reverse phase Gemini C-18 250×4.6 mm column, 10 μl of pigment sample was eluted with a linear gradient from 10% v/v Acetone in Water: 100% Acetone (30:70) to 10% v/v Acetone in Water:100% Acetone (5:95) for 10 min followed with a 6 minute run of 10% v/v Acetone in Water:100% Acetone (5:95) before returning to the start conditions of 10% v/v Acetone in Water: 100% Acetone (30:70) with a 1 min linear gradient and a two minute run of 10% v/v Acetone in Water:100% Acetone (30:70) at a flow rate of 1.3 ml/min. Detection was at 450 nm. Menadione at a concentration of 0.100 mg/ml was added to a 24 hr old culture of AQP096 cultured in marine broth. This culture was further incubated for 4 days on the orbital shaker at 220 rpm […]. After 5 days of incubation, cultures were centrifuged (4,500 rpm, 20 min) and the pigments analysed for carotenoid content by HPLC (See FIGS. 4a and 4b).

For `CC1=CC(=O)c2ccccc2C1=O` [menadione], for the setting “menadione 0.100 mg/ml”, the “induced production of astaxanthin” value is around 12%, the “induced production of beta carotene” value is reported as “about 10%”, the “induced production of beta-cryptoxanthin” value is listed as around 8% and the “induced production of canthaxanthin” value is around 12%. Further, under “menadione 0.100 mg/ml”, the “induced production of lycopene” value is reported as around 6%; the “induced production of other carotenoids such as adonirubin and 3-hydroxyechinenone” value was around 2%. Besides, the “effect on carotenoid production” value (menadione 0.100 mg/ml added to 24 hr old culture in marine broth, HPLC) is on record as “induced the production of all carotenoids associated with the standard carotenoid biosynthetic pathway”. The “amount of zeaxanthin produced by AQP096” value (menadione 0.100 mg/ml, 98% under standard growth conditions) is “around 60%”.
